Measured values taken from paper PMC10096175, “An In Vitro Antimicrobial, Anticancer and Antioxidant Activity of N–[(2–Arylmethylthio)phenylsulfonyl]cinnamamide Derivatives” (Molecules, 2023).
In brackets after ≈: the same amount, converted by molar mass.

Legend:
C. diphtheriae = assay: MIC determination, reference strain (microdilution); assay type: cell-based; settings: Corynebacterium diphtheriae; C. diphtheriae; Co-trimoxazole as sulfamethoxazole/trimethoprim; read-out: MIC
E. faecalis ATCC 51299 = assay: as above; assay type: cell-based; settings: Enterococcus faecalis, ATCC51299; E. faecalis ATCC 51299; Co-trimoxazole as sulfamethoxazole/trimethoprim; read-out: MIC
MCF-7 cells = assay: MTT assay; assay type: cell-based, human; settings: for IC50: Homo sapiens, MCF7, MCF-7, MTT, 24 h treatment, read-out: IC50; for Selectivity index (SI): IC50 HEK-293 / IC50 MCF-7
C. albicans ATCC 10231 = assay: MIC determination, reference fungal strain (microdilution); assay type: cell-based; settings: Candida albicans, ATCC10231; C. albicans ATCC 10231; read-out: MIC
SKOV-3 cells = assay: MTT assay; assay type: cell-based, human; settings: for IC50: Homo sapiens, SK-OV-3, SKOV-3, MTT, 24 h treatment, read-out: IC50; for Selectivity index (SI): IC50 HEK-293 / IC50 SKOV-3
[1] = test system: Staphylococcus sp. and Enterococcus sp.; assay: MIC, summary statements on reference Gram-positive cocci; assay type: cell-based; settings: Staphylococcus and Enterococcus species, reference Gram-positive cocci (range over strains)
Description: Sterile sheep blood defibrinated (GrasoBiotech). Co-trimoxazole (composition sulfamethoxazole 400 mg/trimethoprim 80 mg; WZF Polfa Poland). Ketoconazole (WZF Polfa Poland). Bacteria: Enterococcus hirae ATCC 10541 and Enterococcus faecalis ATCC 51299, Staphylococcus epidermidis ATCC 14990, Staphylococcus aureus ATCC 6538, clinical strains Staphylococcus aureus MRSA, clinical strains Staphylococcus sp. (MRCNS), clinical strain Staphylococcus epidermidis MRSE, clinical strain Enterococcus sp., Corynebacterium diphtheriae ZMF, Bacillus subtilis ATCC 6633, Escherichia coli ATCC 8739, Candida albicans ATCC 10231. Brain-heart infusion broth (BHI, Becton Dickinson) for Enterococcus hirae ATCC 10541 and Enterococcus faecalis ATCC 51299, BHI supplement with 10% bovine serum for Bacillus subtilis, Corynebacterium diphtheriae ZMF, Staphylococcus epidermidis ATCC 14990, Staphylococcus aureus ATCC 6538, clinical strains Staphylococcus aureus MRSA, clinical strains Staphylococcus sp. (CNS), clinical strain Staphylococcus epidermidis MRSE grew in Mueller-Hinton broth (MH cation-adjusted, Becton Dickinson) in an aerobic atmosphere at 37 °C for 48 h, in an aerobic atmosphere at 37 °C for 72 h. Candida albicans grew in Sabourauda broth (Sb, Becton Dickinson), in an aerobic atmosphere at 37 °C for 72 h. After determination of the bacterial viability, BHI blood agar plates, MH agar plates, and Sb agar plates were used.
The MIC determination for the reference and clinical strains was performed based on the methodology described by Kula et al.. The dry test samples were dissolved in dimethyl sulfoxide (DMSO) and diluted in water, resulting in a finale concentration of about 500 µg/mL. These solutions were diluted and added to the first well of each microtiter line. Dilution in geometric progression was done by transferring the mixture/dilution (100 μL) from the first to the twelfth well. An aliquot (100 μL) was discarded from the twelfth well. The final concentration of the samples used in the antimicrobial activity assay ranged from 125 to 0.006 µg/mL. Co-trimoxazole (for bacteria), with the composition sulfamethoxazole 400 mg/trimethoprim 80 mg was used as a reference compound in the concentration range of 20 000/4000 to 1/0.2 µg/mL. Ketoconazole (for fungi) was used as a reference compound in the concentration range of 125 to 0.006 µg/mL. Tests were incubated in adequate conditions described by Kula et al.. Diluent concentration had no effect on the activity of the tested compounds. All experiments were carried out three times.

HEK-293 cells = assay: MTT assay, noncancerous cells; assay type: cell-based; settings: Homo sapiens, HEK293; HEK-293; MTT, 24 h treatment; read-out: IC50
S. aureus ATCC 6538 = assay: MIC determination, reference strain (microdilution); assay type: cell-based; settings: Staphylococcus aureus, ATCC6538; S. aureus ATCC 6538; ± SD; Co-trimoxazole as sulfamethoxazole/trimethoprim; read-out: MIC
B. subtilis ATCC 6633 = assay: as above; assay type: cell-based; settings: Bacillus subtilis, ATCC6633; B. subtilis ATCC 6633; Co-trimoxazole as sulfamethoxazole/trimethoprim; read-out: MIC
in vitro = settings: sheep, defibrinated sheep blood diluted 1:9 v/v with PBS, pH 7
E. hirae ATCC 10541 = assay: MIC determination, reference strain (microdilution); assay type: cell-based; settings: Enterococcus hirae, ATCC10541; E. hirae ATCC 10541; Co-trimoxazole as sulfamethoxazole/trimethoprim; read-out: MIC
DPPH assay = settings: DPPH radical scavenging; 40 min, room temperature
Description: The DPPH assay was performed spectrophotometrically. The amount of 30 µL of different concentrations of samples, dissolved in methanol/DMSO (9/1 v/v), was mixed with 170 µL of 0.06 mM DPPH methanolic solution and completed with methanol to a final volume of 300 µL. DPPH methanolic solution with methanol/DMSO (9/1 v/v) was used as a control. After 40 min of incubation at room temperature in the dark, the absorbance was analyzed at λ = 510 nm by a 96-well microplate reader (Epoch, BioTek System, Santa Clara, CA, USA). Ascorbic acid was used as a standard.
DPPH inhibition was calculated by the following equation:DPPH Inhibition (%) = [Acontrol − Asample)/Acontrol] × 100%
(§1) IC50 values of the samples were calculated using program GraFit v. 7.0 (Erithacus Software). The analysis was performed three times, with tree replications in each (n = 9). Statistical analysis was performed with one-way ANOVA with Tuckey’s post-hoc test.

ABTS assay = settings: ABTS radical scavenging; 10 min, 30 °C
Description: The ABTS assay was performed spectrophotometrically. […] ABTS solution with methanol/DMSO (9/1 v/v) was used as a control. After 10 min of incubation at 30 °C in the dark, the absorbance was analyzed at λ = 750 nm by a 96-well microplate reader (Epoch, BioTek System, Santa Clara, CA, USA). Ascorbic acid was used as a standard.
ABTS inhibition was calculated by the following equation:ABTS Inhibition (%) = [Acontrol − Asample)/Acontrol] × 100%
as §1

[2] = test system: S. epidermidis ATCC 14990; assay: MIC determination, reference strain (microdilution); assay type: cell-based; settings: Staphylococcus epidermidis, ATCC14990; S. epidermidis ATCC 14990; Co-trimoxazole as sulfamethoxazole/trimethoprim; read-out: MIC
HeLa cells = assay: MTT assay; assay type: cell-based, human; settings: for IC50: Homo sapiens, HeLa, 24 h, MTT, 24 h treatment, read-out: IC50; for Selectivity index (SI): IC50 HEK-293 / IC50 HeLa
E. coli ATCC 8739 = assay: MIC determination, reference strain (microdilution); assay type: cell-based; settings: Escherichia coli, ATCC8739; E. coli ATCC 8739; Co-trimoxazole as sulfamethoxazole/trimethoprim; read-out: MIC
[3] = test system: cancer cells (HeLa, SKOV-3, MCF-7); assay: MTT assay, summary statements on the cancer cells; assay type: cell-based; settings: Homo sapiens, cell line not specified

Row | SMILES | MIC (C. diphtheriae) [µg/mL] | MIC (E. faecalis ATCC 51299) [µg/mL] | IC50 (MCF-7 cells) [µg/mL] | Selectivity index (SI) (MCF-7 cells) | MIC (C. albicans ATCC 10231) [µg/mL] | IC50 (SKOV-3 cells) [µg/mL] | Selectivity index (SI) (SKOV-3 cells) | MIC [1] [µg/mL] | IC50 (HEK-293 cells) [µg/mL] | MIC (S. aureus ATCC 6538) [µg/mL] | MIC (B. subtilis ATCC 6633) [µg/mL] | MIC (E. hirae ATCC 10541) [µg/mL] | IC50 DPPH (DPPH assay) [µg/mL] | IC50 ABTS (ABTS assay) [µg/mL] | MIC [2] [µg/mL] | IC50 (HeLa cells) [µg/mL] | Selectivity index (SI) (HeLa cells) | MIC (E. coli ATCC 8739) [µg/mL] | other results
1 | Cc1cc(S(=O)(=O)NC(=O)/C=C/c2ccc(Br)cc2)c(SCc2cccc3ccccc23)cc1Cl [Compound 16b, (E)–3–(4–Bromophenyl)–N–{[4–chloro–5–methyl–2–(naphthalen–1–yl)methylthio]phenylsulfonyl}acrylamide] | 62.5 ± 0.29 (≈ 106 µM) | 2 ± 0.58 (≈ 3.41 µM) | 30.7 ± 2.49 (≈ 52.3 µM) | 0.5 | > 125 | 16.6 ± 0.69 (≈ 28.3 µM) | 0.9 | 1 to 2 (≈ 1.7 to 3.41 µM) | 15.7 ± 1.62 (≈ 26.7 µM) | 1 ± 0.29 (≈ 1.7 µM) | 62.5 ± 0.29 (≈ 106 µM) | 2 ± 0.58 (≈ 3.41 µM) | 945.37 ± 0.14 (≈ 1610 µM) | 697.68 ± 1.26 (≈ 1190 µM) | 1 ± 0.29 (≈ 1.7 µM) | 13.47 ± 0.13 (≈ 22.9 µM) | 1.2 | > 125 | hemolysis at 24 h, 31.25 µg/mL (in vitro): 12 to 20%
2 | Cc1cc(S(=O)(=O)NC(=O)/C=C/c2ccc(F)cc2)c(SCc2cccc3ccccc23)cc1Cl [Compound 16c, (E)–N–{4–Chloro–5–methyl–2–[(naphthalen–1–yl)methylthio]phenylsulfonyl}–3–(4–fluorophenyl)acrylamide] | > 125 | 2 ± 0.58 (≈ 3.8 µM) | 11.2 ± 0.08 (≈ 21.3 µM) | 0.7 | > 125 | 9.28 ± 1.02 (≈ 17.6 µM) | 0.8 | 1 to 2 (≈ 1.9 to 3.8 µM) | 7.67 ± 0.21 (≈ 14.6 µM) | 1 ± 0.29 (≈ 1.9 µM) | 62.5 ± 0.29 (≈ 119 µM) | 2 ± 0.58 (≈ 3.8 µM) | 620.47 ± 0.67 (≈ 1180 µM) | 622.23 ± 2.25 (≈ 1180 µM) | 2 ± 0.58 (≈ 3.8 µM) | 11.2 ± 0.2 (≈ 21.3 µM) | 0.7 | > 125 | IC50 ([3]; MTT): < 10 µg/mL; IC50 ([3]; µg/mL bound converted): ≤ 20 µM
